From PMC7734235 (Computational and Structural Biotechnology Journal, 2020)

Target: T1, Rab5 (Homo sapiens, UniProt P20339)
T1 sequence (P20339 1-215): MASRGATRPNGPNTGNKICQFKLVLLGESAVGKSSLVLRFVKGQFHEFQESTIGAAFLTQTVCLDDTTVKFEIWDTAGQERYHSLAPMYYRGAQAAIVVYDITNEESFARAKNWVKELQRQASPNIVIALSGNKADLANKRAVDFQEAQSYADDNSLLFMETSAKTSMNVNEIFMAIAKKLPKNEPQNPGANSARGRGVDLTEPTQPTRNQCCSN
Assay: intrinsic fluorescence titration
Type: binding

- Kd: 350 ± 30 nM
SMILES: C=C1CC[C@@H]2[C@](C)(CO[C@@H]3O[C@H](CO)[C@@H](O)[C@H](O)[C@H]3O)CCC[C@@]2(C)[C@@H]1CCC1=CCOC1=O [NAP, Neoandrographolide]
